Laboratory results published in patent US12540143B2, “Methods and compositions for targeted protein degradation” (Ranok Therapeutics (Hangzhou) Co. Ltd., priority 2019, dated 2026).

Each compound was assayed on MV4-11 cells (assay: MV4-11 Cytotoxicity Assay). Conditions: Homo sapiens, MV4-11; 72 hr, CCK-8; read-out: MV4-11 cytotoxicity.
Type: cell-based, human

Row | SMILES | IC50 [nM]
1 | Cc1sc2c(c1C)C(c1ccc(Cl)cc1)=N[C@@H](CC(=O)NCCOc1ccc(-n3c(S)nnc3-c3cc(C(C)C)c(O)cc3O)cc1)c1nnc(C)n1-2 [Compound 32, (S)-2-(4-(4-chlorophenyl)-2,3,9-trimethyl-6H-thieno[3,2-f][1,2,4]triazolo[4,3-a][1,4]diazepin-6-yl)-N-(2-(4-(3-(2,4-dihydroxy-5-isopropylphenyl)-5-mercapto-4H-1,2,4-triazol-4-yl)phenoxy)ethyl)acetamide] | 100 to 1000
2 | CCc1cc(-c2nnc(C(=O)NCCN(CC)CC)n2-c2ccc(CN3CCN(CC4CCN(C(=O)C[C@@H]5N=C(c6ccc(Cl)cc6)c6c(sc(C)c6C)-n6c(C)nnc65)CC4)CC3)cc2)c(O)cc1O [Compound 104, (S)-4-(4-((4-((1-(2-(4-(4-chlorophenyl)-2,3,9-trimethyl-6H-thieno[3,2-f][1,2,4]triazolo[4,3-a][1,4]diazepin-6-yl)acetyl)piperidin-4-yl)methyl)piperazin-1-yl)methyl)phenyl)-N-(2-(diethylamino)ethyl)-5-(5-ethyl-2,4-dihydroxyphenyl)-4H-1,2,4-triazole-3-carboxamide, trifluoroacetic acid] | < 100
3 | Cc1sc2c(c1C)C(c1ccc(Cl)cc1)=N[C@@H](CC(=O)N1CCC(CCN3CCC(Cc4ccc(-n5c(O)nnc5-c5cc(C(C)C)c(O)cc5O)cc4)CC3)CC1)c1nnc(C)n1-2 [Compound 80, (S)-2-(4-(4-chlorophenyl)-2,3,9-trimethyl-6H-thieno[3,2-f][1,2,4]triazolo[4,3-a][1,4]diazepin-6-yl)-1-(4-(2-(4-(4-(3-(2,4-dihydroxy-5-isopropylphenyl)-5-hydroxy-4H-1,2,4-triazol-4-yl)benzyl)piperidin-1-yl)ethyl)piperidin-1-yl)ethan-1-one, trifluoroacetic acid] | < 100
4 | Cc1sc2c(c1C)C(c1ccc(Cl)cc1)=N[C@@H](CC(=O)N1CCC(CN3CCN(Cc4ccc(-n5c(O)nnc5-c5cc(C(C)C)c(O)cc5O)cc4)CC3)CC1)c1nnc(C)n1-2 [Compound 103, (S)-2-(4-(4-chlorophenyl)-2,3,9-trimethyl-6H-thieno[3,2-f][1,2,4]triazolo[4,3-a][1,4]diazepin-6-yl)-1-(4-((4-(4-(3-(2,4-dihydroxy-5-isopropylphenyl)-5-hydroxy-4H-1,2,4-triazol-4-yl)benzyl)piperazin-1-yl)methyl)piperidin-1-yl)ethan-1-one acetate] | < 100
5 | Cc1sc2c(c1C)C(c1ccc(Cl)cc1)=N[C@@H](CC(=O)NCC(=O)NCc1ccc(-n3c(O)nnc3-c3cc(C(C)C)c(O)cc3O)cc1)c1nnc(C)n1-2 [Compound 57, 2-((6S)-4-(4-chlorophenyl)-2,3,9-trimethyl-6H-thieno[3,2-f][1,2,4]triazolo[4,3-a][1,4]diazepin-6-yl)-N-(2-((4-(3-(2,4-dihydroxy-5-isopropylphenyl)-5-hydroxy-4H-1,2,4-triazol-4-yl)benzyl)amino)-2-oxoethyl)acetamide] | 100 to 1000
6 | Cc1sc2c(c1C)C(c1ccc(Cl)cc1)=N[C@@H](CC(=O)NCc1ccc(-n3c(S)nnc3-c3cc(C(C)C)c(O)cc3O)cc1)c1nnc(C)n1-2 [Compound 28, (S)-2-(4-(4-chlorophenyl)-2,3,9-trimethyl-6H-thieno[3,2-f][1,2,4]triazolo[4,3-a][1,4]diazepin-6-yl)-N-(4-(3-(2,4-dihydroxy-5-isopropylphenyl)-5-mercapto-4H-1,2,4-triazol-4-yl)benzyl)acetamide] | 100 to 1000
7 | Cc1sc2c(c1C)C(c1ccc(Cl)cc1)=N[C@@H](CC(=O)NCCc1ccc(CN3CCC(Cc4ccc(-n5c(O)nnc5-c5cc(C(C)C)c(O)cc5O)cc4)CC3)cc1)c1nnc(C)n1-2 [Compound 98, (S)-2-(4-(4-chlorophenyl)-2,3,9-trimethyl-6H-thieno[3,2-f][1,2,4]triazolo[4,3-a][1,4]diazepin-6-yl)-N-(4-((4-(4-(3-(2,4-dihydroxy-5-isopropylphenyl)-5-hydroxy-4H-1,2,4-triazol-4-yl)benzyl)piperidin-1-yl)methyl)phenethyl)acetamide, trifluoroacetic acid] | < 100
8 | Cc1sc2c(c1C)C(c1ccc(Cl)cc1)=N[C@@H](CC(=O)N1CCC(N3CCN(c4ccc(-n5c(O)nnc5-c5cc(C(C)C)c(O)cc5O)cc4)CC3)CC1)c1nnc(C)n1-2 [Compound 43, 2-((6S)-4-(4-chlorophenyl)-2,3,9-trimethyl-6H-thieno[3,2-f][1,2,4]triazolo[4,3-a][1,4]diazepin-6-yl)-1-(4-(4-(4-(3-(2,4-dihydroxy-5-isopropylphenyl)-5-hydroxy-4H-1,2,4-triazol-4-yl)phenyl)piperazin-1-yl)piperidin-1-yl)ethanone, trifluoroacetic acid] | < 100
9 | Cc1sc2c(c1C)C(c1ccc(Cl)cc1)=N[C@@H](CC(=O)NCCOCCOc1ccc(-n3c(S)nnc3-c3cc(C(C)C)c(O)cc3O)cc1)c1nnc(C)n1-2 [Compound 33, (S)-2-(4-(4-chlorophenyl)-2,3,9-trimethyl-6H-thieno[3,2-f][1,2,4]triazolo[4,3-a][1,4]diazepin-6-yl)-N-(2-(2-(4-(3-(2,4-dihydroxy-5-isopropylphenyl)-5-mercapto-4H-1,2,4-triazol-4-yl)phenoxy)ethoxy)ethyl)acetamide] | 100 to 1000
10 | CCc1cc(-c2nnc(O)n2-c2ccc(CN3CCC(C(=O)N4CCC(CNC(=O)C[C@@H]5N=C(c6ccc(Cl)cc6)c6c(sc(C)c6C)-n6c(C)nnc65)C4)CC3)cc2)c(O)cc1O (stereo partly drawn) [Compound 77, 2-((6S)-4-(4-chlorophenyl)-2,3,9-trimethyl-6H-thieno[3,2-f][1,2,4]triazolo[4,3-a][1,4]diazepin-6-yl)-N-((1-(1-(4-(3-(5-ethyl-2,4-dihydroxyphenyl)-5-hydroxy-4H-1,2,4-triazol-4-yl)benzyl)piperidine-4-carbonyl)pyrrolidin-3-yl)methyl)acetamide, trifluoroacetic acid] | 100 to 1000
11 | Cc1sc2c(c1C)C(c1ccc(Cl)cc1)=N[C@@H](CC(=O)N1CCC(CN3CCN(c4ccc(-n5c(O)nnc5-c5cc(C(C)C)c(O)cc5O)cc4)CC3)CC1)c1nnc(C)n1-2 [Compound 41, (S)-2-(4-(4-chlorophenyl)-2,3,9-trimethyl-6H-thieno[3,2-f][1,2,4]triazolo[4,3-a][1,4]diazepin-6-yl)-1-(4-((4-(4-(3-(2,4-dihydroxy-5-isopropylphenyl)-5-hydroxy-4H-1,2,4-triazol-4-yl)phenyl)piperazin-1-yl)methyl)piperidin-1-yl)ethanone] | < 100
12 | CCc1cc(-c2nnc(C(=O)NCC(F)(F)F)n2-c2ccc(CC3CCN(CC4CCN(C(=O)C[C@@H]5N=C(c6ccc(Cl)cc6)c6c(sc(C)c6C)-n6c(C)nnc65)CC4)CC3)cc2)c(O)cc1O [Compound 86, (S)-4-(4-((1-((1-(2-(4-(4-chlorophenyl)-2,3,9-trimethyl-6H-thieno[3,2-f][1,2,4]triazolo[4,3-a][1,4]diazepin-6-yl)acetyl)piperidin-4-yl)methyl)piperidin-4-yl)methyl)phenyl)-5-(5-ethyl-2,4-dihydroxyphenyl)-N-(2,2,2-trifluoroethyl)-4H-1,2,4-triazole-3-carboxamide, trifluoroacetic acid] | < 100
13 | CCc1cc(-c2nnc(O)n2-c2ccc(CN3CCC(C(=O)N4CCC(CNCC[C@@H]5N=C(c6ccc(Cl)cc6)c6c(sc(C)c6C)-n6c(C)nnc65)C4)CC3)cc2)c(O)cc1O (stereo partly drawn) [Compound 67, (3-(((2-((6S)-4-(4-chlorophenyl)-2,3,9-trimethyl-6H-thieno[3,2-f][1,2,4]triazolo[4,3-a][1,4]diazepin-6-yl)ethyl)amino)methyl)pyrrolidin-1-yl)(1-(4-(3-(5-ethyl-2,4-dihydroxyphenyl)-5-hydroxy-4H-1,2,4-triazol-4-yl)benzyl)piperidin-4-yl) methanone, trifluoroacetic acid] | 100 to 1000
14 | CCCc1cc(-c2nnc(C(=O)NCCN3CCCCC3)n2-c2ccc(CN3CCN(CC4CCN(C(=O)C[C@@H]5N=C(c6ccc(Cl)cc6)c6c(sc(C)c6C)-n6c(C)nnc65)CC4)CC3)cc2)c(O)cc1O [Compound 123, (S)-4-(4-((4-((1-(2-(4-(4-chlorophenyl)-2,3,9-trimethyl-6H-thieno[3,2-f][1,2,4]triazolo[4,3-a][1,4]diazepin-6-yl)acetyl)piperidin-4-yl)methyl)piperazin-1-yl)methyl)phenyl)-5-(2,4-dihydroxy-5-propylphenyl)-N-(2-(piperidin-1-yl)ethyl)-4H-1,2,4-triazole-3-carboxamide, trifluoroacetic acid] | < 100
15 | Cc1sc2c(c1C)C(c1ccc(Cl)cc1)=N[C@@H](CC(=O)NCC1CCN(C(=O)C3CCN(Cc4ccc(-n5c(O)nnc5-c5cc(C(C)C)c(O)cc5O)cc4)CC3)CC1)c1nnc(C)n1-2 [Compound 53, (S)-2-(4-(4-chlorophenyl)-2,3,9-trimethyl-6H-thieno[3,2-f][1,2,4]triazolo[4,3-a][1,4]diazepin-6-yl)-N-((1-(1-(4-(3-(2,4-dihydroxy-5-isopropylphenyl)-5-hydroxy-4H-1,2,4-triazol-4-yl)benzyl)piperidine-4-carbonyl)piperidin-4-yl)methyl)acetamide, trifluoroacetic acid] | < 100
16 | Cc1sc2c(c1C)C(c1ccc(Cl)cc1)=N[C@@H](CC(=O)Nc1ccc(NC(=O)C3CCN(Cc4ccc(-n5c(O)nnc5-c5cc(C(C)C)c(O)cc5O)cc4)CC3)cc1)c1nnc(C)n1-2 [Compound 72, N-(4-(2-((6S)-4-(4-chlorophenyl)-2,3,9-trimethyl-6H-thieno[3,2-f][1,2,4]triazolo[4,3-a][1,4]diazepin-6-yl)acetamido)phenyl)-1-(4-(3-(2,4-dihydroxy-5-isopropylphenyl)-5-hydroxy-4H-1,2,4-triazol-4-yl)benzyl)piperidine-4-carboxamide, trifluoroacetic acid] | < 100
17 | Cc1sc2c(c1C)C(c1ccc(Cl)cc1)=N[C@@H](CC(=O)NCC1CCN(C(=O)C3CCN(Cc4ccc(-n5c(O)nnc5-c5cc(C(C)C)c(O)cc5O)cc4)CC3)C1)c1nnc(C)n1-2 (stereo partly drawn) [Compound 45, 2-((S)-4-(4-chlorophenyl)-2,3,9-trimethyl-6H-thieno[3,2-f][1,2,4]triazolo[4,3-a][1,4]diazepin-6-yl)-N-((1-(1-(4-(3-(2,4-dihydroxy-5-isopropylphenyl)-5-hydroxy-4H-1,2,4-triazol-4-yl)benzyl)piperidine-4-carbonyl)pyrrolidin-3-yl)methyl)acetamide, trifluoroacetic acid] | < 100
